The results in this text go back to US10975077B2 (Novira Therapeutics, Inc., priority 2016, dated 2021).

Molecules are shown by their SMILES.

The test system of the first assay is HBV (encapsidated HBV DNA, HepG2.2.15 cells). The assay can be described thus: HBV replication inhibition assay, BDNA assay in HepG2.2.15 cells. Particulars: Activity in BDNA-assay. It counts as cell-based. In short, it runs like this:
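Encapsidated HBV DNA in DNase-treated, proteinase K-lysed supernatant was measured by branched DNA after 6 days' compound exposure, refreshed on day 3, of HepG2.2.15 cells in 0.5% DMSO. Signals normalized to DMSO-treated wells; EC50 from nonlinear regression of inhibition against log concentration.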
Take `CCC(O)C1CN(C)C(=O)c2c3c(nn2C1)CC(C)N(C(=O)Nc1ccc(F)c(C(F)(F)F)c1)C3` [Compound 107_D2, (3R,8R*)—N-(4-fluoro-3-(trifluoromethyl)phenyl)-8-((R)-1-hydroxypropyl)-3,10-dimethyl-11-oxo-1,3,4,7,8,9,10,11-octahydro-2H-pyrido[4′,3′:3,4]pyrazolo[1,5-a][1,4] diazepine-2-carboxamide]: the EC50 is 1 to 100 nM.

The same assay, now with this note: Hepatitis B virus, HepG2.2.15, Activity in BDNA-assay.
In the case of `CN1C(=O)c2c3c(nn2CCC1(C)CO)CCN(C(=O)Nc1ccc(F)c(Cl)c1)C3` (centres unmarked) [Compound 061, N-(3-chloro-4-fluorophenyl)-9-(hydroxymethyl)-9,10-dimethyl-11-oxo-1,3,4,7,8,9,10,11-octahydro-2H-pyrido[4′,3′:3,4]pyrazolo[1,5-a][1,4]diazepine-2-carboxamide], the EC50 lay in the range of 1 to 100 nM. For `CN1C(=O)c2c3c(nn2CCC1(C)C(=O)O)CCN(C(=O)Nc1ccc(F)c(Cl)c1)C3` (centres unmarked) [Compound 062, 2-((3-chloro-4-fluorophenyl)carbamoyl)-9,10-dimethyl-11-oxo-1,3,4,7,8,9,10,11-octahydro-2H-pyrido[4′,3′:3,4]pyrazolo[1,5-a][1,4]diazepine-9-carboxylic acid], the EC50 is above 1000 nM. Still for that read-out and setting: the same measure for `CN1CC(CN2CCOCC2)Cn2nc3c(c2C1=O)CN(C(=O)Nc1ccc(F)c(Cl)c1)CC3` (centres unmarked) [Compound 063, N-(3-chloro-4-fluorophenyl)-10-methyl-8-(morpholinomethyl)-11-oxo-1,3,4,7,8,9,10,11-octahydro-2H-pyrido[4′,3′:3,4]pyrazolo[1,5-a][1,4]diazepine-2-carboxamide]: 1 to 100 nM; for `CN1CC(CN2CCCCC2)Cn2nc3c(c2C1=O)CN(C(=O)Nc1ccc(F)c(Cl)c1)CC3` (centres unmarked) [Compound 064, N-(3-chloro-4-fluorophenyl)-10-methyl-11-oxo-8-(piperidin-1-ylmethyl)-1,3,4,7,8,9,10,11-octahydro-2H-pyrido[4′,3′:3,4]pyrazolo[1,5-a][1,4]diazepine-2-carboxamide]: 100 to 500 nM; for `CN(C)CC1CN(C)C(=O)c2c3c(nn2C1)CCN(C(=O)Nc1ccc(F)c(Cl)c1)C3` (centres unmarked) [Compound 065]: 100 to 500 nM.

For `CN1CC(CN2CCC(F)(F)C2)Cn2nc3c(c2C1=O)CN(C(=O)Nc1ccc(F)c(Cl)c1)CC3` (centres unmarked) [Compound 066, N-(3-chloro-4-fluorophenyl)-8-((3,3-difluoropyrrolidin-1-yl)methyl)-10-methyl-11-oxo-1,3,4,7,8,9,10,11-octahydro-2H-pyrido[4′,3′:3,4]pyrazolo[1,5-a][1,4]diazepine-2-carboxamide], the EC50 fell in the range of 1 to 100 nM.

Turning to `CN1CC(CN2CCC(F)(F)C2)Cn2nc3c(c2C1=O)CN(C(=O)Nc1ccc(F)c(C#N)c1)CC3` (centres unmarked) [Compound 067, N-(3-cyano-4-fluorophenyl)-8-((3,3-difluoropyrrolidin-1-yl)methyl)-10-methyl-11-oxo-1,3,4,7,8,9,10,11-octahydro-2H-pyrido[4′,3′:3,4]pyrazolo[1,5-a][1,4]diazepine-2-carboxamide], the EC50 lay in the range of 100 to 500 nM. Still for that read-out and setting: the same measure for `CN1CC(CN2CCC(F)(F)C2)Cn2nc3c(c2C1=O)CN(C(=O)Nc1ccc(F)c(C(F)(F)F)c1)CC3` (centres unmarked) [Compound 068, 8-((3,3-difluoropyrrolidin-1-yl)methyl)-N-(4-fluoro-3-(trifluoromethyl)phenyl)-10-methyl-11-oxo-1,3,4,7,8,9,10,11-octahydro-2H-pyrido[4′,3′:3,4]pyrazolo[1,5-a][1,4] diazepine-2-carboxamide]: 100 to 500 nM; for `CN1CC(CN2CCCC2)Cn2nc3c(c2C1=O)CN(C(=O)Nc1ccc(F)c(Cl)c1)CC3` (centres unmarked) [Compound 069, N-(3-chloro-4-fluorophenyl)-10-methyl-11-oxo-8-(pyrrolidin-1-ylmethyl)-1,3,4,7,8,9,10,11-octahydro-2H-pyrido[4′,3′:3,4]pyrazolo[1,5-a][1,4]diazepine-2-carboxamide]: 1 to 100 nM. Same read-out and setting: the same measure for `CN1CC(CN)Cn2nc3c(c2C1=O)CN(C(=O)Nc1ccc(F)c(Cl)c1)CC3` (centres unmarked) [Compound 070, 8-(aminomethyl)-N-(3-chloro-4-fluorophenyl)-10-methyl-11-oxo-1,3,4,7,8,9,10,11-octahydro-2H-pyrido[4′,3′:3,4]pyrazolo[1,5-a][1,4]diazepine-2-carboxamide]: 1 to 100 nM; for `C[C@@H]1Cc2nn3c(c2CN1C(=O)Nc1cc(Cl)c(F)cc1Br)C(=O)N(CC(F)F)CCC3` [Compound 071, (R)—N-(2-bromo-5-chloro-4-fluorophenyl)-10-(2,2-difluoroethyl)-3-methyl-11-oxo-1,3,4,7,8,9,10,11-octahydro-2H-pyrido[4′,3′:3,4]pyrazolo[1,5-a][1,4]diazepine-2-carboxamide]: 1 to 100 nM; for `C[C@@H]1Cc2nn3c(c2CN1C(=O)Nc1ccc(F)c(Cl)c1)C(=O)N(CC(F)F)CCC3` [Compound 072, (3R)—N-(3-chloro-4-fluorophenyl)-10-(2,2-difluoroethyl)-3-methyl-11-oxo-1,3,4,7,8,9,10,11-octahydro-2H-pyrido[4′,3′:3,4]pyrazolo[1,5-a][1,4]diazepine-2-carboxamide]: 1 to 100 nM. On the same count and under the same terms, in the case of `C[C@@H]1Cc2nn3c(c2CN1C(=O)Nc1ccc(F)c(C(F)(F)F)c1)C(=O)N(CC(F)F)CCC3` [Compound 073, (R)-10-(2,2-difluoroethyl)-N-(4-fluoro-3-(trifluoromethyl)phenyl)-3-methyl-11-oxo-1,3,4,7,8,9,10,11-octahydro-2H-pyrido[4′,3′:3,4]pyrazolo[1,5-a][1,4]diazepine-2-carboxamide] it was 1 to 100 nM; in that of `C[C@@H]1Cc2nn3c(c2CN1C(=O)Nc1ccc(F)c(Br)c1)C(=O)N(CC(F)F)CCC3` [Compound 074, (R)—N-(3-bromo-4-fluorophenyl)-10-(2,2-difluoroethyl)-3-methyl-11-oxo-1,3,4,7,8,9,10,11-octahydro-2H-pyrido[4′,3′:3,4]pyrazolo[1,5-a][1,4]diazepine-2-carboxamide], 1 to 100 nM; in that of `C[C@@H]1Cc2nn3c(c2CN1C(=O)Nc1ccnc(Br)c1F)C(=O)N(CC(F)F)CCC3` [Compound 075], 1 to 100 nM. For `C[C@@H]1Cc2nn3c(c2CN1C(=O)Nc1ccc(F)c(C#N)c1)C(=O)N(CC(F)F)CCC3` [Compound 076, (R)—N-(3-cyano-4-fluorophenyl)-10-(2,2-difluoroethyl)-3-methyl-11-oxo-1,3,4,7,8,9,10,11-octahydro-2H-pyrido[4′,3′:3,4]pyrazolo[1,5-a][1,4]diazepine-2-carboxamide], the EC50 lay within 1 to 100 nM. On the same count and under the same terms, the same measure for `Cc1cc(NC(=O)N2Cc3c(nn4c3C(=O)N(CC(F)F)CCC4)C[C@H]2C)ccc1F` [Compound 077, (R)-10-(2,2-difluoroethyl)-N-(4-fluoro-3-methylphenyl)-3-methyl-11-oxo-1,3,4,7,8,9,10,11-octahydro-2H-pyrido[4′,3′:3,4]pyrazolo[1,5-a][1,4]diazepine-2-carboxamide]: 1 to 100 nM; for `C[C@@H]1Cc2nn3c(c2CN1C(=O)Nc1cc(Cl)c(F)cc1F)C(=O)N(CC(F)F)CCC3` [Compound 078, (R)—N-(5-chloro-2,4-difluorophenyl)-10-(2,2-difluoroethyl)-3-methyl-11-oxo-1,3,4,7,8,9,10,11-octahydro-2H-pyrido[4′,3′:3,4]pyrazolo[1,5-a][1,4]diazepine-2-carboxamide]: 100 to 500 nM. Still for that read-out and setting: the same measure for `CN1CC(CO)(CC(F)F)Cn2nc3c(c2C1=O)CN(C(=O)Nc1ccc(F)c(Cl)c1)CC3` (centres unmarked) [Compound 091, N-(3-chloro-4-fluorophenyl)-8-(2,2-difluoroethyl)-8-(hydroxmethyl)-10-methyl-11-oxo-1,3,4,7,8,9,10,11-octahydro-2H-pyrido[4′,3′:3,4]pyrazolo[1,5-a][1,4]diazepine-2-carboxamide]: 100 to 500 nM; for `CN1CC(CN)Cn2nc3c(c2C1=O)CN(C(=O)Nc1ccc(F)c(C(F)(F)F)c1)CC3` (centres unmarked) [Compound 093, 8-(aminomethyl)-N-[4-fluoro-3-(trifluoromethyl)phenyl]-10-methyl-11-oxo-1,3,4,7,8,9-hexahydropyrido[2,3]pyrazolo[2,4-b][1,4]diazepine-2-carboxamide]: 100 to 500 nM. Regarding `CNCC1CN(C)C(=O)c2c3c(nn2C1)CCN(C(=O)Nc1ccc(F)c(C(F)(F)F)c1)C3` (centres unmarked) [Compound 094, N-[4-fluoro-3-(trifluoromethyl)phenyl]-10-methyl-8-(methylaminomethyl)-11-oxo-1,3,4,7,8,9-hexahydropyrido[2,3]pyrazolo[2,4-b][1,4]diazepine-2-carboxamide], the EC50 lay within 100 to 500 nM. The same measure, in the same setting: the same measure for `CN1CC(CN)Cn2nc3c(c2C1=O)CN(C(=O)Nc1ccc(F)c(C#N)c1)CC3` (centres unmarked) [Compound 095, 8-(aminomethyl)-N-(3-cyano-4-fluorophenyl)-10-methyl-11-oxo-1,3,4,7,8,9,10,11-octahydro-2H-pyrido[4′,3′:3,4]pyrazolo[1,5-a][1,4]diazepine-2-carboxamide]: 1 to 100 nM; for `CCC(O)C1CN(C)C(=O)c2c3c(nn2C1)CCN(C(=O)Nc1ccc(F)c(Br)c1)C3` [Compound 102_E1, (R*)—N-(3-bromo-4-fluorophenyl)-8-((S)-1-hydroxypropyl)-10-methyl-11-oxo-1,3,4,7,8,9,10,11-octahydro-2H-pyrido[4′,3′:3,4]pyrazolo[1,5-a][1,4]diazepine-2-carboxamide]: 1 to 100 nM. The same measure, in the same setting: the same measure for `CCCC(O)C1CN(C)C(=O)c2c3c(nn2C1)CCN(C(=O)Nc1ccc(F)c(Cl)c1)C3` (centres unmarked) [Compound 106, N-(3-chloro-4-fluoro-phenyl)-8-(1-hydroxybutyl)-10-methyl-1-oxo-1,3,4,7,8,9-hexahydropyrido[2,3]pyrazolo[2,4-b][1,4]diazepine-2-carboxamide]: 1 to 100 nM; for `CCC(O)C1CN(C)C(=O)c2c3c(nn2C1)CC(C)N(C(=O)Nc1ccc(F)c(C(F)(F)F)c1)C3` [Compound 107_D1, (3R,8S*)—N-(4-fluoro-3-(trifluoromethyl)phenyl)-8-((R)-1-hydroxypropyl)-3,10-dimethyl-11-oxo-1,3,4,7,8,9,10,11-octahydro-2H-pyrido[4′,3′:3,4]pyrazolo[1,5-a][1,4] diazepine-2-carboxamide]: 1 to 100 nM.
